We go through 41 compounds from patent US12240840B2, “Amide-substituted heterocyclic compounds for the treatment of conditions related to the modulation of IL-12, IL-23 and/or IFN-alpha” (BRISTOL-MYERS SQUIBB COMPANY, priority 2018, dated 2025).

The test system of the test is IFNα-induced pSTAT5 (pY694) in CD3 positive cells of human whole blood. Nature of the test: IFNα-Induced STAT Phosphorylation in Human Whole Blood. Type of test: cell-based. Particulars: 1 h compound incubation, 1000 U/mL recombinant human IFNα A/D for 15 min, pSTAT5 in CD3 positive population, read-out: Human WB IFNα-Induced Stat Phosph. (IC50). The procedure, abridged: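 Read-out is median fluorescence intensity of pSTAT5 (pY694) in the CD3-positive gate, by flow cytometry after fix/lyse and permeabilization. Before that, whole human blood anticoagulated with EDTA or ACD-A received compound for an hour and 1000 U/mL IFNα A/D for 15 min.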

Where two headings read alike, the source gives them in different places.

Consider `COc1c(Nc2cc(NCC3CC3)nnc2C(N)=O)cccc1-c1noc(CNS(C)(=O)=O)n1` [Example 119], for which, where the note is “Homo sapiens”, the IC50 (in general, the concentration at which inhibition is half-maximal) was > 10000 nM.
The same measure, in the same setting: next, `COc1c(Nc2cc(NC(=O)C3CC3)nnc2C(N)=O)cccc1-c1noc(CS(C)(=O)=O)n1` [Example 64]: 110 nM; `[2H]C([2H])([2H])NC(=O)c1nnc(NC(=O)C2CC2)cc1Nc1cccc(-c2noc([C@@H](C)O)n2)c1OC` [Example 85]: 240 nM; `[2H]C([2H])([2H])NC(=O)c1nnc(NC(=O)C2CC2)cc1Nc1cccc(-c2nc(CNC(=O)CN(C)C)no2)c1OC` [Example 147]: 1720 nM.
The same measure, in the same setting: then `COc1c(Nc2cc(NC(=O)C3CC3)nnc2C(N)=O)cccc1-c1noc([C@H]2C[C@@H](O)CN2S(C)(=O)=O)n1` [Example 62], with 80 nM; and `[2H]C([2H])([2H])NC(=O)c1nnc(Nc2ccc(OC)nn2)cc1Nc1cccc(-c2nc(CN3CCOCC3)no2)c1OC` [Example 238], with 80 nM.
Same read-out and setting: then `COc1c(Nc2cc(NC(=O)C3CC3)nnc2C(N)=O)cccc1-c1noc(CCS(C)(=O)=O)n1` [Example 71], with 25 nM.
With `[2H]C([2H])([2H])NC(=O)c1cnc(NC(=O)C2CC2)cc1Nc1cccc(-c2cnn(CCNS(C)(=O)=O)n2)c1OC` [Example 436], the IC50 (Homo sapiens) is 300 nM.
Still for that read-out and setting: next, `[2H]C([2H])([2H])NC(=O)c1nnc(Nc2ccc(C)nn2)cc1Nc1cccc(-c2cn(CCN3CCOCC3)nn2)c1OC` [Example 424]: 200 nM; `[2H]C([2H])([2H])NC(=O)c1nnc(NC(=O)C2CC2)cc1Nc1cccc(-c2ncc(CNC(=O)OC)s2)c1OC` [Example 266]: 2530 nM.
For the compound `[2H]C([2H])([2H])NC(=O)c1nnc(NC(=O)C2CC2)cc1Nc1cccc(-c2ncc(CC(=O)N3CCOCC3)s2)c1OC` [Example 253], the IC50 (Homo sapiens) came out at 300 nM.
Still for that read-out and setting: then `[2H]C([2H])([2H])NC(=O)c1nnc(NC(=O)C2CC2)cc1Nc1cccc(-c2nc(C)c(C(=O)NC(C)C)s2)c1OC` [Example 364], with 440 nM; and `[2H]C([2H])([2H])NC(=O)c1nnc(NC(=O)C2CC2)cc1Nc1cccc(-c2nc(CN3CCN(C(=O)c4cccnc4)CC3)no2)c1OC` [Example 131], with 740 nM; and `[2H]C([2H])([2H])NC(=O)c1cnc(NC(=O)C2CC2)cc1Nc1cccc(-c2noc(CO)n2)c1OC` [Example 98], with 23 nM.
For the compound `[2H]C([2H])([2H])NC(=O)c1nnc(NC(=O)C2CC2)cc1Nc1cccc(-c2ncc(C(=O)NCCN3CCCC(C)C3)s2)c1OC` (centres unmarked) [Example 324], the IC50 (Homo sapiens) was 60 nM.
Turning to `[2H]C([2H])([2H])NC(=O)c1nnc(NC(=O)C2CC2)cc1Nc1cccc(-c2nc(CN(C)S(C)(=O)=O)no2)c1OC` [Example 169], the IC50 (Homo sapiens) turned out to be 110 nM.
For the compound `[2H]C([2H])([2H])NC(=O)c1nnc(NC(=O)C2CC2)cc1Nc1cc(F)cc(-c2cc(C(=O)N3CCN(C(C)C)CC3)n(C)n2)c1OC` [Example 518], the IC50 (Homo sapiens) came to 150 nM.
For `[2H]C([2H])([2H])NC(=O)c1nnc(NC(=O)C2CC2)cc1Nc1cccc(-c2cc(C(=O)N3CCN(C(C)=O)CC3)n(C)n2)c1OC` [Example 493], the IC50 (Homo sapiens) came to 40 nM.
Same read-out and setting: then `[2H]C([2H])([2H])NC(=O)c1cnc(Nc2cnn(C)n2)cc1Nc1cc(F)cc(-c2cc(C(=O)N(C)C)n(C)n2)c1OC` [Example 553], with 120 nM; and `COc1c(Nc2cc(N)nnc2C(N)=O)cccc1-c1noc(C(=O)NC2CCN(C)CC2)n1` [Example 116], with 4970 nM; and `[2H]C([2H])([2H])c1c(NC(=O)C2CC2)nnc(C(N)=O)c1Nc1cccc(-c2nc(CN3CCN(C(C)=O)CC3)no2)c1OC` [Example 120, 4-((3-(3-((4-acetylpiperazin-1-yl)methyl)-1,2,4-oxadiazol-5-yl)-2-methoxyphenyl)amino)-6-(cyclopropanecarboxamido)-trideuteromethylpyridazine-3-carboxamide], with 150 nM.
`[2H]C([2H])([2H])NC(=O)c1nnc(NC(=O)C2CC2)cc1Nc1cccc(-c2nc(CNC(=O)OC(C)(C)C)no2)c1OC` [Example 142]: the IC50 (Homo sapiens) was 5310 nM.
`[2H]C([2H])([2H])NC(=O)c1nnc(NC(=O)C2CC2)cc1Nc1cccc(-c2nc(CN3CC4CN(C(=O)OC(C)(C)C)CC4C3)no2)c1OC` (centres unmarked) [Example 231]: the IC50 (Homo sapiens) stood at 1750 nM.
In the case of `[2H]C([2H])([2H])NC(=O)c1nnc(NC(=O)C2CC2)cc1Nc1cccc(-c2ncc(CNS(C)(=O)=O)s2)c1OC` [Example 265], the IC50 (Homo sapiens) worked out at 530 nM.
On the same count and under the same terms, then `COc1c(Nc2cc(NC(=O)C3CC3)nnc2C(N)=O)cccc1-c1noc([C@H](C)N(C)S(C)(=O)=O)n1` [Example 51], with 160 nM; and `[2H]C([2H])([2H])NC(=O)c1nnc(NC(=O)C2CC2)cc1Nc1cccc(-c2nc([C@@H](C)NC(=O)OC)no2)c1OC` [Example 192], with 870 nM; and `[2H]C([2H])([2H])NC(=O)c1cnc(NC(=O)CC2CC2)cc1Nc1cccc(-c2noc(COC)n2)c1OC` [Example 86], with 300 nM.
In the case of `[2H]C([2H])([2H])NC(=O)c1nnc(NC(=O)C2CC2)cc1Nc1cccc(-c2nc([C@@H](COC(C)(C)C)NC(=O)OC(C)(C)C)no2)c1OC` [Example 219], where the note is “Homo sapiens”, the IC50 stood at 5240 nM.
With `[2H]C([2H])([2H])NC(=O)c1nnc(NC(=O)C2CC2)cc1Nc1cccc(-c2ncc(C(=O)NCCN3CCCC3)s2)c1OC` [Example 301], where the note is “Homo sapiens”, the IC50 was 30 nM.
Same read-out and setting: next, `COc1c(Nc2cc(NC(=O)C3CC3)nnc2C(N)=O)cccc1-c1noc(C(=O)NCCC2CCCN2C)n1` (centres unmarked) [Example 37]: 18 nM; `[2H]C([2H])([2H])NC(=O)c1nnc(NC(=O)C2CC2)cc1Nc1cccc(-c2ncc(C(=O)NCCCC)s2)c1OC` [Example 314]: 260 nM.
For `[2H]C([2H])([2H])NC(=O)c1nnc(NC(=O)C2CC2)cc1Nc1cccc(-c2nc([C@@H](C)NC(C)=O)no2)c1OC` [Example 194], for the setting “Homo sapiens”, the IC50 turned out to be 160 nM.
With `[2H]C([2H])([2H])NC(=O)c1nnc(NC(=O)C2CC2)cc1Nc1cccc(-n2cc(CNC)nn2)c1OC` [Example 5], the IC50 (Homo sapiens) was 3300 nM.
For `[2H]C([2H])([2H])NC(=O)c1cnc(NC(=O)C2CC2)cc1Nc1cccc(-c2cnn(CCNC(C)=O)n2)c1OC` [Example 439], the IC50 (Homo sapiens) came out at 440 nM.
As for `[2H]C([2H])([2H])NC(=O)c1nnc(NC(=O)C2CC2)cc1Nc1cccc(-c2ncc(CC(=O)NCC(O)CO)s2)c1OC` (centres unmarked) [Example 248], for the setting “Homo sapiens”, the IC50 was 2240 nM.
Still for that read-out and setting: next, `COc1c(Nc2cc(N)nnc2C(N)=O)cccc1-c1noc(CN2CCOCC2)n1` [Example 107]: 820 nM; `[2H]C([2H])([2H])NC(=O)c1nnc(NC(=O)C2CC2)cc1Nc1cc(F)cc(-c2cc(C(=O)N3CCN(C)CC3)n(C)n2)c1OC` [Example 497]: 110 nM.
The same measure, in the same setting: then `[2H]C([2H])([2H])NC(=O)c1nnc(NC(=O)C2CC2)cc1Nc1cccc(-c2cc(C(=O)N(C)C)n(C)n2)c1OC` [Example 483], with 60 nM.
Turning to `[2H]C([2H])([2H])NC(=O)c1nnc(NC(=O)C2CC2)cc1Nc1cccc(-c2cnn(CCNC(C)=O)c2)c1OC` [Example 563, 4-((3-(1-(2-acetamidoethyl)-1H-pyrazol-4-yl)-2-methoxyphenyl)amino)-6-(cyclopropanecarboxamido)-N-(methyl-d3)pyridazine-3-carboxamide], the IC50 came out at 3120 nM.
With `[2H]C([2H])([2H])NC(=O)c1nnc(Nc2cnn(C)n2)cc1Nc1cccc(-c2ncc(C(=O)N(C)C)s2)c1OC` [Example 381], under “Homo sapiens”, the IC50 was 130 nM.
As for `[2H]C([2H])([2H])NC(=O)c1nnc(NC(=O)C2CC2)cc1Nc1cccc(-c2nc(C)c(C(=O)N3CCC(N4CCN(CCO)CC4)CC3)s2)c1OC` [Example 359], the IC50 (Homo sapiens) amounted to 340 nM.
